The text below walks through data of patent US10987359B2, “Oxadiazepinone derivatives and methods of treating hepatitis B infections” (priority 2016, dated 2021).

Structures are written as SMILES.

A word on the EC50: it is the midpoint of the concentration-response curve.

The test concerns HBV. Put plainly: HBV replication inhibition assay (BDNA assay) in HepG2.2.15 cells. As to conditions: Hepatitis B virus, HepG2.2.15, HBV replication assay (BDNA assay), HepG2.2.15 cells; read-out: DNA EC50. It counts as cell-based. An outline of the steps:
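HepG2.2.15 cells with stably integrated HBV were treated with serially diluted compounds at 0.5% DMSO for 6 days, with medium and compound refreshed at day 3. Encapsidated HBV DNA from DNase-treated supernatant was quantified by branched DNA assay. EC50 came from % inhibition versus DMSO, fitted non-linearly.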
On to `CCOC(=O)NCC1Cn2nc3c(c2C(=O)N(C)O1)CN(C(=O)Nc1ccc(F)c(Cl)c1)CC3` (stereo not drawn) [Compound 202, ethyl ((10-((3-chloro-4-fluorophenyl)carbamoyl)-2-methyl-1-oxo-1,2,4,5,8,9,10,11-octahydropyrido[4′,3′:3,4]pyrazolo[5,1-d][1,2,5]oxadiazepin-4-yl)methyl)carbamate], for which the EC50 lay in the range of 1 to 100 nM.
On to `CN1OC(CNC(=O)OC2CC2)Cn2nc3c(c2C1=O)CN(C(=O)Nc1ccc(F)c(Cl)c1)CC3` (stereo not drawn) [Compound 203, cyclopropyl ((10-((3-chloro-4-fluorophenyl)carbamoyl)-2-methyl-1-oxo-1,2,4,5,8,9,10,11-octahydropyrido[4′,3′:3,4]pyrazolo[5,1-d][1,2,5]oxadiazepin-4-yl)methyl)carbamate], for which the EC50 fell in the range of 1 to 100 nM.
On to `CN(C)C(=O)NCC1Cn2nc3c(c2C(=O)N(C)O1)CN(C(=O)Nc1ccc(F)c(Cl)c1)CC3` (stereo not drawn) [Compound 204, N-(3-chloro-4-fluorophenyl)-4-((3,3-dimethylureido)methyl)-2-methyl-1-oxo-1,4,5,8,9,11-hexahydropyrido[4′,3′:3,4]pyrazolo[5,1-d][1,2,5]oxadiazepine-10(2H)-carboxamide], for which the EC50 was in the range of 1 to 100 nM.
For the molecule `CN1OC(CNC(=O)CC#N)Cn2nc3c(c2C1=O)CN(C(=O)Nc1ccc(F)c(Cl)c1)CC3` (stereo not drawn) [Compound 205, N-(3-chloro-4-fluorophenyl)-4-((2-cyanoacetamido)methyl)-2-methyl-1-oxo-1,4,5,8,9,11-hexahydropyrido[4′,3′:3,4]pyrazolo[5,1-d][1,2,5]oxadiazepine-10(2H)-carboxamide], the EC50 is 1 to 100 nM.
For `CN1OC(CNC(=O)CO)Cn2nc3c(c2C1=O)CN(C(=O)Nc1ccc(F)c(Cl)c1)CC3` (stereo not drawn) [Compound 206, N-(3-chloro-4-fluorophenyl)-4-((2-hydroxyacetamido)methyl)-2-methyl-1-oxo-1,4,5,8,9,11-hexahydropyrido[4′,3′:3,4]pyrazolo[5,1-d][1,2,5]oxadiazepine-10(2H)-carboxamide] the value was 1 to 100 nM; for `CN1OC(CNC(=O)OCC(F)(F)F)Cn2nc3c(c2C1=O)CN(C(=O)Nc1ccc(F)c(Cl)c1)CC3` (stereo not drawn) [Compound 207, 2,2,2-trifluoroethyl ((10-((3-chloro-4-fluorophenyl)carbamoyl)-2-methyl-1-oxo-1,2,4,5,8,9,10,11-octahydropyrido[4′,3′:3,4]pyrazolo[5,1-d][1,2,5]oxadiazepin-4-yl)methyl)carbamate], 1 to 100 nM.
For `CCS(=O)(=O)NCC1Cn2nc3c(c2C(=O)N(C)O1)CN(C(=O)Nc1ccc(F)c(Cl)c1)CC3` (stereo not drawn) [Compound 208, N-(3-chloro-4-fluorophenyl)-4-(ethylsulfonamidomethyl)-2-methyl-1-oxo-1,4,5,8,9,11-hexahydropyrido[4′,3′:3,4]pyrazolo[5,1-d][1,2,5]oxadiazepine-10(2H)-carboxamide] the value was 1 to 100 nM.
Regarding `CN1OC(CO)Cn2nc3c(c2C1=O)CC(C(=O)Nc1ccc(F)c(Cl)c1)CC3` (stereo not drawn) [Compound 209, N-(3-chloro-4-fluoro-phenyl)-4-(hydroxymethyl)-2-methyl-1-oxo-4,5,8,9,10,11-hexahydro-[1,2,5]oxadiazepino[5,4-b]indazole-10-carboxamide], the EC50 lay in the range of 500 to 1000 nM.
Under `C[C@@H]1Cc2nn3c(c2CN1C(=O)Nc1ccc(F)c(C#N)c1)C(=O)N(C)O[C@H](COCC(F)(F)F)C3` [Compound 210, (4S,9R)—N-(3-cyano-4-fluorophenyl)-2,9-dimethyl-1-oxo-4-((2,2,2-trifluoroethoxy)methyl)-1,4,5,8,9,11-hexahydropyrido[4′,3′:3,4]pyrazolo[5,1-d][1,2,5]oxadiazepine-10(2H)-carboxamide] stands 1 to 100 nM; under `C[C@@H]1Cc2nn3c(c2CN1C(=O)Nc1ccc(F)c(C#N)c1)C(=O)N(C)OC(C)(C)C3` [Compound 213, (R)—N-(3-cyano-4-fluorophenyl)-2,4,4,9-tetramethyl-1-oxo-1,4,5,8,9,11-hexahydropyrido[4′,3′:3,4]pyrazolo[5,1-d][1,2,5]oxadiazepine-10(2H)-carboxamide], 1 to 100 nM; under `C[C@@H]1Cc2nn3c(c2CN1C(=O)Nc1ccc(F)c(C(F)(F)F)c1)C(=O)N(C)OC(C)(C)C3` [Compound 214, (5R)—N-[4-Fluoro-3-(trifluoromethyl)phenyl]-5,11,11,13-tetramethyl-14-oxo-12-oxa-4,8,9,13-tetrazatricyclo[7.5.0.0^2.7]tetradeca-1,7-diene-4-carboxamide], 1 to 100 nM.
Under `CN1NCCn2nc3c(c2C1=O)CN(C(=O)Nc1ccc(F)c(Cl)c1)CC3` [Compound 216, N-(3-Chloro-4-fluoro-phenyl)-2-methyl-1-oxo-3,4,5,8,9,11-hexahydropyrido[2,3]pyrazolo[2,4-c][1,2,5]triazepine-10-carboxamide] stands 100 to 500 nM; under `CN1CCn2nc3c(c2C(=O)N1C)CN(C(=O)Nc1ccc(F)c(Cl)c1)CC3` [Compound 217, N-(3-Chloro-4-fluorophenyl)-2,3-dimethyl-1-oxo-1,2,3,4,5,8,9,11-octahydro-10H-pyrido[4′,3′:3,4]pyrazolo[5,1-d][1,2,5]triazepine-10-carboxamide], 1 to 100 nM.
For `C=CCN1CCn2nc3c(c2C(=O)N1C)CN(C(=O)Nc1ccc(F)c(C#N)c1)[C@H](C)C3` [Compound 218, (R)-3-allyl-N-(3-cyano-4-fluorophenyl)-2,9-dimethyl-1-oxo-1,2,3,4,5,8,9,11-octahydro-10H-pyrido[4′,3′:3,4]pyrazolo[5,1-d][1,2,5]triazepine-10-carboxamide] the value was 1 to 100 nM.
As for `CCCN1CCn2nc3c(c2C(=O)N1C)CN(C(=O)Nc1ccc(F)c(C#N)c1)[C@H](C)C3` [Compound 219, (R)—N-(3-cyano-4-fluorophenyl)-2,9-dimethyl-1-oxo-3-propyl-1,2,3,4,5,8,9,11-octahydro-10H-pyrido[4′,3′:3,4]pyrazolo[5,1-d][1,2,5]triazepine-10-carboxamide], the EC50 lay within 1 to 100 nM.
In the case of `C[C@@H]1Cc2nn3c(c2CN1C(=O)Nc1ccc(F)c(C#N)c1)C(=O)N(C)N(CCO)CC3` [Compound 220, (R)—N-(3-Cyano-4-fluorophenyl)-3-(2-hydroxyethyl)-2,9-dimethyl-1-oxo-1,2,3,4,5,8,9,11-octahydro-10H-pyrido[4′,3′:3,4]pyrazolo[5,1-d][1,2,5]triazepine-10-carboxamide], the EC50 was 100 to 500 nM.
For `C[C@@H]1Cc2nn3c(c2CN1C(=O)Nc1ccc(F)c(C#N)c1)C(=O)N(C)N(CC(F)F)CC3` [Compound 221, (R)—N-(3-Cyano-4-fluorophenyl)-3-(2,2-difluoroethyl)-2,9-dimethyl-1-oxo-1,2,3,4,5,8,9,11-octahydro-10H-pyrido[4′,3′:3,4]pyrazolo[5,1-d][1,2,5]triazepine-10-carboxamide] the value was 1 to 100 nM; for `C[C@@H]1Cc2nn3c(c2CN1C(=O)Nc1ccc(F)c(C#N)c1)C(=O)N(C)N(CCCO)CC3` [Compound 222, (R)—N-(3-Cyano-4-fluorophenyl)-3-(3-hydroxypropyl)-2,9-dimethyl-1-oxo-1,2,3,4,5,8,9,11-octahydro-10H-pyrido[4′,3′:3,4]pyrazolo[5,1-d][1,2,5]triazepine-10-carboxamide], 100 to 500 nM.
